The text below walks through data of patent US11154566B2, “Composition for preventing hair loss or promoting hair growth” (CK BIOTECH, priority 2017, dated 2021).

Each structure is given as a SMILES string. Values after ≈ are worked out from the molar mass of the structure shown.

The series is described as follows: Solubility of indirubin derivative in oils and surfactants (LC/MS/MS). The class given is physicochemical. The note with it: thermodynamic from solid, 72 hours at 37° C. The procedure: To determine emulsion solution, solubility of indirubin derivative, embodiment 2 is measured in the several oil and surfactants. After enough amount of indirubin derivative powder made from manufacturing example 2 is putted into each oil or surfactants (1 ml), it was into vortexing 30 min. The equilibrium state was reached by shaking for 72 hours at 37° C. with 50 rpm speed in an incubator, then centrifuged at 16,100×g for 5 min. The supernatant was diluted with methanol and analyzed by LC/MS/MS. The kind of above oil or surfactants and measured solubility are shown below table 1.
‘Waters xevo TQ MS-ACQUITY UPLC System’ is used as an analyses equipment. ACQUITY UPLC® BEH (C18, 1.7 μm, 2.1×50 mm) column was used for analyses at room temperature. Mobile phase is used after filtration of deionized distilled water including 0.1% formic acid and acetonitrile including 0.1% formic acid (30:70, v/v) with […] membrane filter. The flow rate is 0.25 ml/min and it is analyzed by injection of 0.5 μl sample. There are LC/MS/MS conditions for Decursin analysis; Cone 38 V, Collison 32 V. Precursor ion and daughter ion are monitored 329 and 229 m/z, respectively.

A word on the solubility: it is how much of the substance goes into solution per volume. As for `CO/N=C1/C(=C2/C(=O)Nc3cc(Cl)c(Cl)cc32)Nc2ccccc21` [Embodiment A3051, 5,6-dichloroindirubin-3′-methoxime], the solubility at 72 h amounted to 5400 µg/mL (≈ 15 mM) (aqueous with cosolvent or surfactant or cyclodextrin, in Kolliphor EL); 4580 µg/mL (≈ 12.7 mM) (aqueous with cosolvent or surfactant or cyclodextrin, in Tween 20); 4920 µg/mL (≈ 13.7 mM) (aqueous with cosolvent or surfactant or cyclodextrin, in Tween 80); 830 µg/mL (≈ 2.3 mM) (oil or lipid, in Olive oil); 1350 µg/mL (≈ 3.75 mM) (oil or lipid, in Sunflower oil); 3100 µg/mL (≈ 8.61 mM) (organic solvent or mixture, in PEG 400). Besides, the solubility at 72 h is, setting by setting: (organic solvent or mixture, in Propylene glycol) 250 µg/mL (≈ 0.694 mM); (organic solvent or mixture, in Transcutor P) 1150 µg/mL (≈ 3.19 mM).
